The target in experiment [1] is human wild type STING (WT STING) (Homo sapiens, UniProt Q86WV6, H232R). As to the kind of experiment: Digitonin assay using 293T wtSTING-FL reporter cells (ISRE firefly luciferase reporter). The class given is cell-based. Conditions: 293T wtSTING-FL cells; 30 min in Digitonin buffer, then 5 hours; luciferase read-out; 8-point dose-response curve; read-out: Digitonin assay EC50 (μmol · l^−1) WT STING. The text has this:
Two complementary oligonucleotides of the sequence […] […] […] […] […] The oligonucleotides were mixed in equal molar amounts, hybridized, and cleaved by restriction endonucleases HindIII (cat. #. R0104S, NEB, Ipswich, USA) and BglII (cat. #R0144S, NEB, Ipswich, USA). Ultimately, they were ligated into plasmid pGL4.27 (cat. #E6651, Promega, Madison, USA) linearized with the same enzymes. As result the sequence with four ISRE sites was placed upstream of the minimum promoter of firefly luciferase reporter gene.
After 5 minutes incubation at room temperature (RT), 250 μL of the mixture was added dropwise to the cells in one well.
Transfected cells were seeded onto poly-D-lysine coated six well plates at density 50,000 cells per 1 cm^2 in DMEM medium with high glucose containing 10% heat inactivated FBS, 30 μg/mL blasticidin (cat. #ant-bl-05, InvivoGen, San Diego, USA), 0.06 mg/ml Penicillin G and 0.1 mg/ml Streptomycin Sulfate (both cat. #. L0018, Biowest, Riverside, USA). The medium was replenished every 3-4 days until visible colonies of cells resistant to blasticidin were formed.
Blasticidin resistant cells stably expressing WT STING were further transfected with […] plasmid following the same procedure as described above. […] Homogeneous culture of stably double transfected cells was prepared by limiting dilution of cells in 96 well plates and wells with cells were selected that originated from a single cell.
The medium was removed next day and three fold serial dilutions of compounds in Digitonin buffer containing 50 mmol·l^−1 HEPES (cat. #H3375, Sigma Aldrich, Czech Republic) pH 7.0, 100 mmol·l^−1 KCl, 3 mmol·l^−1 MgCl2, 0.1 mmol·l^−1 DTT (cat. #D0632, Sigma Aldrich, Czech Republic), 85 mmol·l^−1 Sucrose (cat. #S7903, Sigma Aldrich, Czech Republic), 0.2% BSA (cat. #A2153, Sigma Aldrich, Czech Republic), 1 mmol·l^−1 ATP (cat. #A1852, Sigma Aldrich, Czech Republic), 0.1 mmol·l^−1 GTP (cat. #G8877, Sigma Aldrich, Czech Republic), and 10 μg/mL Digitonin A (cat. #D141, Sigma Aldrich, Czech Republic) were added to the cells. The buffer was removed after 30 minutes incubation at 37° C. with 5% CO2, the cells were washed once with 100 μl of cultivation medium, and 100 IA of medium was added to each well. The plates with cells were incubated for 5 hours at 37° C. with 5% CO2, 50 μl of the medium was removed and 30 μl of ONE-Glo™ Luciferase Assay System reagent (cat. #E6120, Promega, Madison, USA) was added to each well. Luminesce was read on Synergy H1 (Biotek, Winooski, USA).
In general terms: In a reporter assay the amount or activity of a reporter protein is the signal.

Experiment [2] concerns the target T1, WT STING (truncated human WT STING protein) (Homo sapiens, UniProt Q86WV6, H232R).
T1 construct: truncated human WT STING or AQ STING (amino acid residues 140-343); 8xHis (N, cleaved yes); SUMO (N, cleaved yes); made in house; host or cells: E. coli Rosetta-gami B (DE3)
Nature of the experiment: Differential Scanning Fluorimetry with WT STING. It is filed as binding. Conditions: thermal shift vs apoprotein, 150 μM CDN, 0.1 mg/ml STING protein, SYPRO Orange; for ΔTm at 150 µM: read-out: DSF ΔTm (° C.) WT STING. The procedure:
(§1) Purified PCR products were cleaved with restriction enzymes BamHI (cat. #R0136S, NEB, Ipswich, USA) and NotI (cat. #R0189S, NEB, Ipswich, USA) and cloned into the pSUMO vector linearized with the identical enzymes.
(§2) DNase I (cat. #D5025, Sigma Aldrich, Czech Republic) and RNase A (cat. #R6513, Sigma Aldrich, Czech Republic) were added (final concentration […]) together with MgCl2 (final concentration 5 mmol·l^−1) to the homogenate and bacteria were lysed using French Press G-M™ High-Pressure Cell Press Homogenizer (1500 psi, 3 cycles). […] The resin was poured into a chromatography column, washed with 50 ml buffer A (50 mmol·l^−1 TrisCl (pH 8.0), 800 mmol·l^−1 NaCl, 3 mmol·l^−1β-mercaptoethanol; 10% glycerol; 20 mmol·l^−1 imidazole) and 8-His-SUMO tagged STING proteins were eluted with 15 ml buffer A containing 300 mmol·l^−1 imidazole. […] Proteins were concentrated with Amicon® Ultra-15 10 K device (cat. #UFC901008, Merck Millipore, Billerica, USA) and flash frozen in liquid N2.
(§3) Differential Scanning Fluorimetry with WT STING and AQ STING
(§4) 20 μL solutions of the reaction mixtures were pipetted in triplicates into 96 well optical reaction plates and thermal denaturation of samples were performed on real time PCR cycler (LightCycler® 480 Instrument II—Roche, Base^1, Switzerland). The first derivative of the thermal denaturation curves was performed to calculate denaturing temperatures of STING-CDN complexes and STING apoproteins. The thermal shift for each CDN was calculated by subtracting the average denaturing temperature of STING apoprotein from the average denaturing temperature of STING CDN complex.
(DSF heats the sample and reads unfolding from a dye or from intrinsic fluorescence.)

Experiment [3] addresses T2, AQ STING (truncated human STING G230A-R293Q allelic form) (Homo sapiens, UniProt Q86WV6, G230A/H232R/R293Q).
T2 construct: truncated human WT STING or AQ STING (amino acid residues 140-343); 8xHis (N, cleaved yes); SUMO (N, cleaved yes); made in house; host or cells: E. coli Rosetta-gami B (DE3)
As to the kind of experiment: Differential Scanning Fluorimetry with AQ STING. To be noted: thermal shift vs apoprotein, 150 μM CDN, 0.1 mg/ml STING protein, SYPRO Orange; for ΔTm at 150 µM: read-out: DSF ΔTm (° C.) AQ STING. The class given is binding. The procedure:
as §1, §2, §3, §4

Each structure is given as a SMILES string. pEC50: −log10 of the molar value.

T2 sequence (Q86WV6 140-343 G230A/H232R/R293Q): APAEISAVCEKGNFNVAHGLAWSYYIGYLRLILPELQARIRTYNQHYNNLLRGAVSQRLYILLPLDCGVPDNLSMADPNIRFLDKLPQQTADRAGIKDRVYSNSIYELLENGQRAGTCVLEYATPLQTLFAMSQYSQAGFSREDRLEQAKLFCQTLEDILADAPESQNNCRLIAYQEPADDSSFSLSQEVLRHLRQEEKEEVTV
human wild type STING (WT STING), sequence (Q86WV6 whole entry H232R): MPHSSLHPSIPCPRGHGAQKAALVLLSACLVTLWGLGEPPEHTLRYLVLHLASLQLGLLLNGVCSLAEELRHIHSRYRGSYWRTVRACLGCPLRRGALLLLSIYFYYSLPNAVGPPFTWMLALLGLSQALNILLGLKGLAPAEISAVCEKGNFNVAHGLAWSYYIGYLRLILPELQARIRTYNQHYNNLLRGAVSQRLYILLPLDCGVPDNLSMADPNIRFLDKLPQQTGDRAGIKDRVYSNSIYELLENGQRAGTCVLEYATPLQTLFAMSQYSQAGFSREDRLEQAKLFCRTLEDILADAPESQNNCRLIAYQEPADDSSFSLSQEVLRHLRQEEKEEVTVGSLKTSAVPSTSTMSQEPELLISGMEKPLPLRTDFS
T1 sequence (Q86WV6 140-343 H232R): as the sequence (Q86WV6 140-343 G230A/H232R/R293Q) above, with A91G, Q154R counted along it

A word on the pEC50: it is −log10 of the EC50, conventionally taken in molar units. For `Nc1nc2c(ncn2[C@@H]2O[C@@H]3COP(=O)(O)O[C@@H]4[C@H](O)[C@@H](COP(=O)(O)O[C@@H]2[C@@H]3O)O[C@H]4n2cnc3c(N)ncnc32)c(=O)[nH]1` [2′2′-cGAMP, reference compound], the pEC50 in experiment [1] was 7.52. In experiment [2], the “DSF ΔTm (° C.) WT STING” value amounted to 11.5 °C. Besides, the “DSF ΔTm (° C.) AQ STING” value in experiment [3] came out at 19.4 °C.
Take `Nc1ncnc2c1ncn2[C@@H]1O[C@@H]2COP(=O)(O)O[C@H]3[C@@H](O)[C@H](n4cnc5c(N)ncnc54)O[C@@H]3COP(=O)(O)O[C@H]2[C@H]1O` [3′3′-c-di-AMP, reference compound]: the pEC50 in experiment [1] was 6.52. The “DSF ΔTm (° C.) WT STING” value in experiment [2] turned out to be 2.6 °C. Moreover, the “DSF ΔTm (° C.) AQ STING” value in experiment [3] came to 9.3 °C.
With `Nc1nc2c(ncn2[C@@H]2O[C@@H]3COP(=O)(O)O[C@H]4[C@@H](O)[C@H](n5cnc6c(=O)[nH]c(N)nc65)O[C@@H]4COP(=O)(O)O[C@H]3[C@H]2O)c(=O)[nH]1` [3′3′-c-di-GMP, reference compound], the negative-log EC50 (pEC50) in experiment [1] is 5.24. Moreover, the “DSF ΔTm (° C.) WT STING” value in experiment [2] was 2.6 °C. Further, in experiment [3], the “DSF ΔTm (° C.) AQ STING” value is 7.7 °C.
A word on the ΔTm: it is the shift of the melting midpoint relative to a reference. In the case of `Nc1nc2c(ncn2[C@@H]2O[C@@H]3COP(=O)(O)O[C@@H]4[C@H](O)[C@@H](COP(=O)(O)CO[C@H]3[C@H]2O)O[C@H]4n2cnc3c(N)ncnc32)c(=O)[nH]1` [Example 2, (1R,6R,8R,9R,10S,16R,18R,19R)-8-(2-amino-6-oxo-6,9-dihydro-1H-purin-9-yl)-18-(6-amino-9H-purin-9-yl)-3,9,13,19-tetrahydroxy-2,4,7,11,14,17-hexaoxa-3λ^5,13λ^5-diphosphatricyclo[14.2.1.0^6,^10]nonadecane-3,13-dione], the pEC50 in experiment [1] is 5.92. In addition, the thermal shift (ΔTm) at 150 µM in experiment [2] stood at 1.4 °C; in experiment [3], 8.8 °C.
Regarding `Nc1nc2c(ncn2[C@@H]2O[C@@H]3COP(=O)(O)O[C@H]4[C@@H](O)[C@H](n5cnc6c(N)ncnc65)O[C@@H]4COP(=O)(O)CO[C@@H]2[C@@H]3O)c(=O)[nH]1` [Example 3, (1R,6S,7R,8R,10R,16R,17R,19R)-17-(2-amino-6-oxo-6,9-dihydro-1H-purin-9-yl)-8-(6-amino-9H-purin-9-yl)-4,7,13,19-tetrahydroxy-3,5,9,12,15,18-hexaoxa-4λ^5,13λ^5-diphosphatricyclo[14.2.1.0^6,^10]nonadecane-4,13-dione], the pEC50 in experiment [1] is 5.52. In addition, the results for the ΔTm at 150 µM in experiment [2] and in experiment [3] were 0.8 °C and 7.2 °C, respectively.
Turning to `Nc1nc2c(ncn2[C@@H]2O[C@@H]3COP(=O)(O)O[C@H]4[C@@H](F)[C@H](n5cnc6c(N)ncnc65)O[C@@H]4COP(=O)(O)CO[C@@H]2[C@@H]3O)c(=O)[nH]1` [Example 4, (1R,6R,7R,8R,10R,16R,17R,19R)-17-(2-amino-6-oxo-6,9-dihydro-1H-purin-9-yl)-8-(6-amino-9H-purin-9-yl)-7-fluoro-4,13,19-trihydroxy-3,5,9,12,15,18-hexaoxa-4λ^5,13λ^5-diphosphatricyclo[14.2.1.0^6,^10]nonadecane-4,13-dione], the negative-log EC50 (pEC50) in experiment [1] was 7.70. The ΔTm at 150 µM in experiment [2] is 7.3 °C; in experiment [3], 16 °C.
On the same counts, the results for `Nc1nc2c(ncn2[C@@H]2O[C@@H]3COP(=O)(O)CO[C@H]4[C@@H](O)[C@H](n5cnc6c(N)ncnc65)O[C@@H]4COP(=O)(O)O[C@@H]2[C@@H]3O)c(=O)[nH]1` [Example 5, (1R,6R,8R,9R,10S,16R,18R,19R)-18-(2-amino-6-oxo-6,9-dihydro-1H-purin-9-yl)-8-(6-amino-9H-purin-9-yl)-3,9,13,19-tetrahydroxy-2,4,7,11,14,17-hexaoxa-3λ^5,13λ^5-diphosphatricyclo[14.2.1.0^6,^10]nonadecane-3,13-dione] are 7.85, 16.7 °C and 23.2 °C.

The record behind these values is patent publication US11149052B2, “2′3′-cyclic dinucleotides” (Institute of Organic Chemistry and Biochemistry, ASCR, V.V.I, priority 2018, dated 2021).
